Data published in patent US6559148B1, “Use of P2Y purinoreceptor antagonist for the treatment of ischemia reperfusion” (Consiglio Nazionale delle Ricerche, priority 1998, dated 2003).
Entries after “also recorded” stand apart in the source; their conditions may differ.

Tested on: Wistar albino adult male rats
Test: Transient global cerebral ischemia by 4-vessel occlusion (4-VO, Pulsinelli and Brierley method) for 30 minutes
Format: in vivo, rat
Details: 30 minutes global ischemia
Procedure: By way of non-limiting example of the present invention, some experimental examples are given herein that show the effectiveness of the compounds modulating P2 purinoceptors, and in particular Basilen Blue, in the reduction of mortality induced by global ischemia. In particular, for such analysis Wistar albino adult male rats weighting 220-250 g have been utilized. Basilen Blue was diluted in saline solution. After a 12 hour fast, transient cerebral ischemia was induced in the rats by the Pulsinelli and Brierley method (Stroke, 10:267-272, 1979). The animals were anesthetized with 2% halotane in a mixture of 30% O2 and 70% N2O. Both vertebral arteries were electrically cauterized and thin claps from Teflon were loosely and reversibly placed around the common carotid arteries. The animals were allowed to recover from anesthesia and kept one per cage, under standard conditions of humidity, temperature and light. The following day, the rats were submitted to a mild anesthesia always with halothane and the claps previously placed around the common carotid arteries were tightened to produce the occlusion of 4 vessels (4-VO) for 30 minutes (in 24 animals). The absence of locomotion activity, the loss of corneal and righting reflexes and the presence of paralytic mydriasis, which took place after 1-2 minutes from the carotid occlusion, were the criteria according to which the animals were considered ischemic and included in the study. The rectal temperature was monitored during the following recovery period and kept constant at a temperature between 36.5 and 37° C. until the rats recovered the locomotion activity and the thermal homeostasis. […]
Wistar albino male rats, having a mean weight of 220-250 g, treated with saline solution (controls) or Basilen Blue were submitted for 30 minutes to global cerebral ischemia, the whole as described previously. The mortality was then monitored for two days following the carotid occlusion in a total of 24 animals (11 controls and 13 treated with Basilen Blue). […]

With Basilen Blue E-3G (Reactive Blue 2) the “neuronal damage to the hippocampus (neurons lost in CA1-CA2 sectors)” value (2 x 4,5 mg/kg i.p., vs saline controls) was “less severe”, the “mortality index compared to control group” value (2 x 4,5 mg/kg i.p., vs saline controls, p>0,05 as printed) was “significantly lower; also recorded: reduces the mortality” and the “animals died (mortality) within two days from the carotid occlusion” value (Basilen Blue 4,5 mg/kg i.p. 15 minutes before and 3 hours after carotid occlusion, control group 5 out of 11 died) was 3 out of the 13.
